This is an account of results in patent US20130344139A1, “METHOD OF REDUCING CONTACT LENS INTOLERANCE WITH NON-DRYING ANTIHISTAMINES” (priority 2005, published 2013).

Data set [1] deals with muscarinic receptors (M1-M5). The data set is described as follows: Muscarinic receptor signaling, statements for M1-M5 together. The conditions noted are these: for inhibition of muscarinic receptor signaling (in words): stimulation with 500 nM acetylcholine; for IC50 at muscarinic receptors (in words): lack of anticholinergic properties.
Description: (§1) C6 rat glioma and CHO-K1 (Chinese hamster ovary) cells were obtained from the American Type Culture Collection (ATCC, Manassas, Va.). […] Recombinant cell lines stably expressing independently each of the five human muscarinic receptors (M1, M2, M3, M4 or M5) were established by transfecting C6 rat glioma cells with the plasmid pcDNA3.1(+) containing the DNA sequence encoding the muscarinic receptor subtypes. Moreover, two of the muscarinic receptor subtypes (M2 and M4) that signal through the Gαi protein were expressed in C6 cells that also expressed a functional chimeric Gq/i protein allowing these receptors to signal via calcium mobilization.
For data set [2], the target named is human muscarinic receptor M3 (Homo sapiens, UniProt P20309). The data set is described as follows: Muscarinic receptor potency, C6 cells expressing recombinant M3.
Description: as §1
Data set [3] addresses T1, human muscarinic receptor M5 (Homo sapiens, UniProt P08912).
T1 sequence (P08912 1-532): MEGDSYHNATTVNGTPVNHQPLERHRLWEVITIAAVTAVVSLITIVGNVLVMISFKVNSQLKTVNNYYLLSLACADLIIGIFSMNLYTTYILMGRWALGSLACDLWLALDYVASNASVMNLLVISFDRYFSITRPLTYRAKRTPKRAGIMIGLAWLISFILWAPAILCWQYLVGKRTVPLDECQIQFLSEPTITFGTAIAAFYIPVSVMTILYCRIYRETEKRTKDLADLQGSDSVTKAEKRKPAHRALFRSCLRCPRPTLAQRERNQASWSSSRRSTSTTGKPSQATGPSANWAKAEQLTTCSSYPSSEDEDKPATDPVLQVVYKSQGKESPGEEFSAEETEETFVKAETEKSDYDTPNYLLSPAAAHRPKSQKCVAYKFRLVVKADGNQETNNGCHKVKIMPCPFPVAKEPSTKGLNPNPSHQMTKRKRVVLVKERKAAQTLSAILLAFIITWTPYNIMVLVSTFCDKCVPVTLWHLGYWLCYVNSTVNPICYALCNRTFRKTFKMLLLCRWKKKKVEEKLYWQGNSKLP
Kind of data set: Muscarinic receptor potency, C6 cells expressing recombinant M5.
Description: as §1

Data set [4] concerns the target T2, human muscarinic receptor M4 (Homo sapiens, UniProt P08173).
T2 sequence (P08173 1-479): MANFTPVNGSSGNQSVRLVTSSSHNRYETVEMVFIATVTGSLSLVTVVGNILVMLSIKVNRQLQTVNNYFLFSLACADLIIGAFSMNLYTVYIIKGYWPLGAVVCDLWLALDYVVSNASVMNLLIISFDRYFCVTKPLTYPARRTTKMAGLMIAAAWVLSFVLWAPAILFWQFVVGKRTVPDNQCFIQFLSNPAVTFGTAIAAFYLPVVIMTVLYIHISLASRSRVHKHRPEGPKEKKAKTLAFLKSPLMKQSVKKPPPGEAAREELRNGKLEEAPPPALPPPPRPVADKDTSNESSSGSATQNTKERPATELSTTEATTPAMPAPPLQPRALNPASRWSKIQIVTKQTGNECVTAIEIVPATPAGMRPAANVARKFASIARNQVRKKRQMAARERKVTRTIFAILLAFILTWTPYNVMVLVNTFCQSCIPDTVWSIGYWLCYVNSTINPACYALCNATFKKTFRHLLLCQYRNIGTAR
Kind of data set: Muscarinic receptor potency, C6 cells expressing recombinant M4 (chimeric Gq/i).
Description: as §1

Data set [5] addresses endogenous M3 receptor (1321N1) (Homo sapiens, UniProt P20309).
The target in data set [6] is human histamine H1 receptor (Homo sapiens, UniProt P35367). The data set is described as follows: H1 receptor potency: inhibition of histamine stimulation in CHO-K1 H1 cells.
Description: as §1
Dose response curves were generated.
The next data set relates to healthy individuals. Conditions: systemic antihistamines; increased corneal and conjunctival staining, decreased TFBUT, increased ocular discomfort; cited from earlier work.
The next data set relates to C57BL6 mice. The data set is described as follows: Effect of topical epinastine and olopatadine on tear volume in mice (phenol red cotton thread). It is filed as in vivo, mouse. The conditions noted are these: for tear volume compared with untreated group: olopatadine: 15 min and 45 min (P<0.05); for overall effect on tear volume / tear secretion (conclusion): topical, mice. The procedure:
After two and four days of treatment, tear volume measurements were made with a phenol red impregnated cotton thread (Zone-Quick, Menicon, San Mateo, Calif.) 15, 45, 90, 120 and 240 min after the last instillation of the drug. A baseline tear measurement was performed before initiation of drug therapy. The untreated group had tear volume measurements done at the same time points. The length of tear wetting on the cotton thread was measured with a Nikon SMZ1500 microscope using MetaVue© software. A standard curve of cotton thread uptake was made using a glass micropipette with a known volume of a basic solution. Mouse tear volumes were calculated using regression analysis calculated by Microsoft® Excel. ANOVA with Tukey's Multiple Comparison Test was used for statistical analysis using GraphPad Prism® software.

Data set [7] relates to contact lens-wearing subjects. The data set is described as follows: Effect of topical epinastine on contact lens-wearing, contact lens intolerant subjects. It is filed as in vivo. The text has this:
This was a multi-center, open-label, randomized study that compared (a) epinastine 0.05% ophthalmic solution (ELESTAT®, Inspire Pharmaceuticals, Inc., Durham, N.C.) plus rewetting drops (Walgreens Rewetting Drops, Walgreens, Deerfield Ill.) with (b) rewetting drops alone. The subjects wore contact lenses, but were contact lens intolerant. The study started during the spring allergy season because seasonal allergic conjunctivitis may exacerbate the symptoms of contact lens intolerance.
146 subjects had 3 clinic visits over a 2-week period. The first was the screening visit to determine eligibility. Following that, subjects completed a daily diary card to assess compliance and capture baseline values during a 5-7 day run-in period with rewetting drops. At the next visit, each subject was dispensed a new pair of contact lenses and randomly assigned to receive either (a) epinastine 0.05% ophthalmic solution BID (twice a day) plus rewetting drops (75 subjects), or (b) rewetting drops only as needed, but at least twice a day (71 subjects), for a 5-7 day treatment period. During the treatment period, subjects recorded the length of time that contact lens wear was comfortable, the total time of wear, ocular itch, overall ocular comfort, and use of rewetting drops. Subjects receiving epinastine were instructed to remove contact lenses prior to instillation, allow at least 10 minutes before reinsertion, and allow 15 minutes before administering rewetting drops. Each instillation was to occur 8-12 hours after the previous one, with the evening application coming after removal of lenses for the day. The final visit came after the 5-7 day treatment period and allowed collection of the data and unused study medication.
Ocular comfort was scored on a scale of 0-4, with 0=very comfortable, 1=somewhat comfortable, 2=mildly uncomfortable, 3=moderately uncomfortable, and 4=very uncomfortable.
Ocular itch was scored on a scale of 0-4, with 0=none, 1=mild, 2=moderate, 3=severe, and 4=extremely severe.
Baseline values presented are the average of all entries recorded during the run-in phase of the study. P values are based on an ANCOVA model that included the treatment, the site, and the baseline value. Values for Day 1 are not included in the analysis for contact lens wear time, ocular itching, ocular comfort, and rewetting drop usage because they were a mixture of run-in and treatment period values.

The subject of the next data set is allergic conjunctivitis. Conditions: in vivo; cited from earlier work.
The target in data set [8] is T3, human muscarinic receptor M2 (Homo sapiens, UniProt P08172).
T3 sequence (P08172 1-466): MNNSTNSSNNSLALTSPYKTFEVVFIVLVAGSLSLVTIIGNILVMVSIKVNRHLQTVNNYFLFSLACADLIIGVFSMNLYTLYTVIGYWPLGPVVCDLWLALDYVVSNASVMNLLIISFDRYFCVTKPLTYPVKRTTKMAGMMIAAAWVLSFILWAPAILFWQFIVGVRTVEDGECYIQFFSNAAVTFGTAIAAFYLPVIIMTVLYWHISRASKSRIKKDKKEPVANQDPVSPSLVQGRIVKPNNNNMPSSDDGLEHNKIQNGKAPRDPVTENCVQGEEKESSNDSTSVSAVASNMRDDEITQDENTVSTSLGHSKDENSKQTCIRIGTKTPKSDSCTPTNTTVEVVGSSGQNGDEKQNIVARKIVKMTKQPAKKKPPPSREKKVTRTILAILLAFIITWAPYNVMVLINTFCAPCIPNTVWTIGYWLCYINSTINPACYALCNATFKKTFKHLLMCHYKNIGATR
The data set is described as follows: Muscarinic receptor potency, C6 cells expressing recombinant M2 (chimeric Gq/i).
Description: as §1

In the next data set the test system is human subjects. Kind of data set: Ocular drying effect of topical epinastine and systemic loratadine, crossover study (fluorophotometry, staining, TFBUT). The conditions noted are these: after 4 days of treatment.
Data set [9] deals with T4, human muscarinic receptor M1 (Homo sapiens, UniProt P11229).
T4 sequence (P11229 1-460): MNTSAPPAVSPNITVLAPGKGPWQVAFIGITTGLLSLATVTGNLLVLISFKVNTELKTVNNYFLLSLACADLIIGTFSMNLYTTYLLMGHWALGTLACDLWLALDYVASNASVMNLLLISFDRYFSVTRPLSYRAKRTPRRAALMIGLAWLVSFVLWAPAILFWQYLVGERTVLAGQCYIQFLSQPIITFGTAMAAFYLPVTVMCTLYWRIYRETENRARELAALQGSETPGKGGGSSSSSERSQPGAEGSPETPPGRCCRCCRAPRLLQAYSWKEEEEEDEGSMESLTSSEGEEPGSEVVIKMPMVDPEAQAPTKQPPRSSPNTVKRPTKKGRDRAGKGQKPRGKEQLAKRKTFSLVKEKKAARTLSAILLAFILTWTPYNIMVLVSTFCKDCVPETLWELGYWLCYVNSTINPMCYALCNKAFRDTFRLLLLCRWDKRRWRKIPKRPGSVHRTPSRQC
Kind of data set: cell-based.
Description: as §1

The mark [10] stands for this setting: average during treatment period.

human histamine H1 receptor, sequence (P35367 whole entry): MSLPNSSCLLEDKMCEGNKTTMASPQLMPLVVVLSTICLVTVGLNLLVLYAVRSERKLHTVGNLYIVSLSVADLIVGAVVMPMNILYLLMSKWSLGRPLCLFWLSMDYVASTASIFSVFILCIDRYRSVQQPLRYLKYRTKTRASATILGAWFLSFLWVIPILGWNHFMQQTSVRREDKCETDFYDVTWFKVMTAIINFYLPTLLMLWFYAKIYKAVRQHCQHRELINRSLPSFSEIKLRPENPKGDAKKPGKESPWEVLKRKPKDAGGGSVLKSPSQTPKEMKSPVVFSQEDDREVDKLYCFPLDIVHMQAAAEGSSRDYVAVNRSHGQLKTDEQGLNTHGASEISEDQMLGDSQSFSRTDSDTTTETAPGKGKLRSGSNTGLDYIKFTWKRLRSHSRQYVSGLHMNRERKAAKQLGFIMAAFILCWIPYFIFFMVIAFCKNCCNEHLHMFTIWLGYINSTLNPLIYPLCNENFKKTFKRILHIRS
endogenous M3 receptor (1321N1), sequence (P20309 whole entry): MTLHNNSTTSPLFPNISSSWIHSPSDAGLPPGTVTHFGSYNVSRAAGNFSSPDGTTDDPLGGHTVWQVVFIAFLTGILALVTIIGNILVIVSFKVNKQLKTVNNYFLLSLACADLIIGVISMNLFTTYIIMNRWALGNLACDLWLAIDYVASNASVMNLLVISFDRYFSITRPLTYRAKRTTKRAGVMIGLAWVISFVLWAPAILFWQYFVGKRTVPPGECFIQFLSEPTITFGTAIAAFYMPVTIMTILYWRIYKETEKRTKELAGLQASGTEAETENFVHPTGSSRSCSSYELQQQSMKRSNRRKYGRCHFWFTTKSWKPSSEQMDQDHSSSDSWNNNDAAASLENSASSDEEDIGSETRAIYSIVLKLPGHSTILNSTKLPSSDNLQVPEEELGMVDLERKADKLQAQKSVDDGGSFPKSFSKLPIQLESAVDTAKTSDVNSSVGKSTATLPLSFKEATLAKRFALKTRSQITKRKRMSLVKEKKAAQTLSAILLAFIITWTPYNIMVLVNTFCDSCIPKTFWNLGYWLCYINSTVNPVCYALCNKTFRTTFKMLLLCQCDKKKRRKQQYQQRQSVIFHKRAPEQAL
human muscarinic receptor M3, sequence (P20309 whole entry): as above

As to `CN1CCCC(n2nc(Cc3ccc(Cl)cc3)c3ccccc3c2=O)CC1` (stereo not shown) [azelastine], the “inhibition of muscarinic receptor signaling (in words)” value in data set [1] is reported as “inhibited muscarinic receptor signaling in a dose-dependent manner”. The IC50 in data set [2] stood at 16.8 µM; in data set [3] it was 3.26 µM; in [4], 8.11 µM; in data set [5], 10.2 µM.
In the case of `CCOCCn1c(C2CCN(CCc3ccc(C(C)(C)C(=O)O)cc3)CC2)nc2ccccc21` [bilastine], the “IC50 at muscarinic receptors (in words)” value in data set [1] is “could not be calculated”. Also, 0.165 ± 0.044 µM corresponded to half-maximal inhibition in data set [6] (IC50).
In the case of `O=C(O)COCCN1CCN(C(c2ccccc2)c2ccc(Cl)cc2)CC1` (stereo not shown) [cetirizine], the “signs and symptoms associated with ocular dryness” value in the data set on healthy individuals is “induced signs and symptoms associated with ocular dryness”. In data set [1], the “IC50 at muscarinic receptors (in words)” value is on record as “could not be calculated”.
As to `NC1=NCC2c3ccccc3Cc3ccccc3N12` (stereo not shown) [epinastine, 3-amino-9,13b-dihydro-1H-dibenz[c,f]-imidazo[5,1-a]azepine], the “mean tear volume compared with olopatadine-treated group” value with C57BL6 mice (after 2 days of treatment, 1 μL twice a day on ocular surface, 15, 45, 90 and 240 minutes, significant at 45 min (P<0.001)) is “higher mean tear volumes”. The “tear volume compared with untreated group” value in the data set on C57BL6 mice (after 2 days of treatment) is listed as “increased production of tears over the untreated group, but the difference was not statistically significant”. Further, in the data set with C57BL6 mice (after 4 days of treatment, significant at 45 min (p<0.05)), the “tear volume compared with olopatadine” value is given as “volumes were higher at all time points”. Moreover, the “overall effect on tear volume / tear secretion (conclusion)” value with C57BL6 mice was “not found to inhibit tear secretion, but rather increased tear production”. Also, in data set [7] (setting [10]), the “Frequency of rewetting drop use, mean change from baseline” value was −0.55 and the “Total contact lens wear, mean change from baseline” value came out at 0.35 h. Moreover, the “Comfortable contact lens wear, mean change from baseline” value in data set [7] (average during treatment period (5-7 days)) is 1.33 h. Moreover, in data set [7] (in vivo), the “average use of rewetting drops over the entire treatment period” value was 2.79 uses per day. In data set [7] (score 0-4 (0=very comfortable, 4=very uncomfortable)), the “mean overall eye comfort over the entire treatment period” value turned out to be 1.43. Moreover, in [7] (score 0-4 (0=very comfortable, 4=very uncomfortable), average during treatment period), the “Overall eye comfort, mean change from baseline” value was −0.48. In addition, in data set [7] (score on a scale of 0-4), the “average ocular itch score over the entire treatment period” value was 1.11. Also, in data set [7] (score on a scale of 0-4, average during treatment period), the “Ocular itch, mean change from baseline” value is −0.54. Further, in data set [7] (treatment period 5-7 days), the “average total wearing time over the treatment period” value came to 13.22 h and the “comfortable wear time averaged over the treatment period” value was 9.21 h. Besides, in the data set on allergic conjunctivitis, the “redness and itching associated with allergic conjunctivitis” value was “reduces redness and itching”. For the same compound, the “IC50 at muscarinic receptors (in words)” value in data set [1] is “could not be calculated”. In data set [6], the IC50 stood at 0.019 ± 0.003 µM.
`CN1CCC(=C2c3ccccc3CC(=O)c3sccc32)CC1` [ketotifen]: the IC50 in data set [3] amounted to 0.138 µM; in data set [8], 0.209 µM; in data set [4] it was 0.561 µM.
Regarding `CCOC(=O)N1CCC(=C2c3ccc(Cl)cc3CCc3cccnc32)CC1` [loratadine], the “signs and symptoms associated with ocular dryness” value in the data set on healthy individuals was “induced signs and symptoms associated with ocular dryness”. Further, in the data set on human subjects, the “corneal and conjunctival staining, increase” value turned out to be 22%; the “mean TFBUT (tear film break-up time), decrease” value is listed as 22%; the “tear flow, decrease” value is given as 35%; the “tear volume, decrease” value is 34%.
Regarding `CN(C)CC/C=C1/c2ccccc2COc2ccc(CC(=O)O)cc21` [olopatadine], in the data set with C57BL6 mice (after 2 days of treatment), the “tear volume compared with untreated group” value was “untreated group also had a statistically higher tear volume than the olopatadine group”. Besides, the “overall effect on tear volume / tear secretion (conclusion)” value with C57BL6 mice is listed as “significant decrease in tear volume”. Besides, the IC50 in data set [9] stood at 1.74 µM; in [2] it was 7.98 µM; in [3] it was 10.7 µM; in data set [8] it was 7.67 µM; in [4] it was 13.1 µM; in data set [5] it was 41.9 µM. Also, the “inhibition of muscarinic receptor signaling (in words)” value in [1] was “inhibited muscarinic receptor signaling in a dose-dependent manner”.
